Patent US8022051B2, “Composition for protection and improvement of skin, or reinforcing skin barrier function comprising phosphatidylserine” (Doosan Corporation, priority 2004, dated 2011)

Key:
[1] = system: skin keratinocyte cell line (HaCaT) and normal human keratinocytes; test: Reduction of inflammatory response induced by ultraviolet irradiation in skin keratinocytes (ELISA of TNF-a, IL-6, IL-1alpha); assay type: cell-based; conditions: 25 mJ/cm^2 UVB; phosphatidylserine 20 and 40 μM, WY-14643 200 μM; 24 hours; FIG. 3
Description: In order to examine an inflammatory response-reducing effect of the phosphatidylserine of the invention in the skin keratinocyte, which response results from the ultraviolet irradiation, a following experiment was performed in accordance with a method disclosed in the literature (Stefan et. al., The Journal of Investigate Dermatology, 117, pp 1430-1436, 2001).
First, the skin keratinocyte cell line (HaCaT, a gift from Yonsei univeritym, Korea) was seeded to a 35 mm^2 of cell culture dish in an amount of 3×10^5 cells/dish and then cultured for a day. Next day, the culture medium was removed and the cell was washed with 1× phosphate-buffered saline (PBS), 700 μl of 1×PBS was added to each of the dishes, it was irradiated 25 mJ/cm^2 UVB and then PBS was removed. […] Next day, the culture medium was collected and then amounts of TNF-a and IL-6 which have been known as inflammatory cytokines were measured with an enzyme-linked immunosorbent assay (ELISA) method. In addition, in order to check that there occurred a similar inflammatory response reducing effect also in the normal human skin keratinocyte, an experiment was performed in the above-mentioned manner using normal human keratinocytes (a gift from Dong-guk University) instead of the HaCaT cell line and then an amount of IL-1alpha secreted to the culture medium was measured with the ELISA.

[2] = system: skin keratinocyte cell line (HaCaT); test: Protection of skin keratinocytes from ultraviolet injury (MTT assay); assay type: cell-based, human; conditions: 25 mJ/cm^2 UVB; phosphatidylserine 20 and 40 μM, WY-14643 200 μM; 24 hours; FIG. 4
[3] = system: TPA-induced ear inflammation in CD-1 mouse; test: Alleviation of skin damage (inflammatory response) due to TPA in mouse ear; assay type: in vivo; conditions: TPA 0.03%; applied 30 μl per cm^2 at 45 minutes and 4 hours after induction; phosphatidylserine 0.5%, clofibrate 1 mM, Wy14643 1 mM; FIG. 2
Description: In order to examine a skin damage (inflammatory response)-alleviating effect of the phosphatidylserine of the invention, which damage results from skin inflammation-inducing material, a following experiment was performed in accordance with a method used by Sheu et. al. (The Journal of Investigate Dermatology, 118, pp 94-101, 2002).
First, CD-1 mouse (male & female, 6-8 weeks, Charles River, US) was used as an experimental object. TPA (12-0-tetradecanoylphorbol-13-acetate) 0.03% (wt./vol.; in acetone) solution 10 μl, which was skin inflammation-inducing material, was treated to inner and outer parts of both ears of the experimental animal. The ear was thickened due to TPA and there occurred an inflammatory response. Then, clofibrate (1 mM) and Wy14643 (1 mM) as already-known positive control group, which are agonists of PPAR-a, and the 0.5% phosphatidylserine containing aqueous solution used as the Example 1 as an experimental material were applied to both ears in an amount of 30 μl per cm^2 at times of 45 minutes and 4 hours after the inflammation was induced. After that, the treated parts of the ears were subject to a biopsy, and the biopsy parts were fixed to 4% formaldehyde and then subject to Hematoxylene & Eosin (E&H) staining. The tissue slide stained with H&E was magnified to 100 folds to check the inflammation alleviation.

skin = conditions: applied to the skin; Sheu et al., J Invest Dermatol 118, 94-101, 2002; cited from earlier work
[4] = system: skin keratinocytes (HaCaT); test: Protection from ROS (hydrogen peroxide) in skin keratinocytes (MTT assay); assay type: cell-based; conditions: phosphatidylserine 25 μM, vitamin C 100 μM, vitamin E 100 μM, 24 hours; then 1 mM H2O2 about 1-1.5 hours; FIG. 8
Description: In order to measure an effect of protecting the skin from the ROS in the keratinocyte by the phosphatidylserine of the invention, a following experiment was performed.
First, the skin keratinocytes (HaCaT) were seeded to the 24-well plate in an amount of 5×10^4 cells/well. Next day, it was treated with 25 μM phosphatidylserine aqueous solution (Doosan Biotech, Korea) (phosphatidylserine-treated group), 100 μM vitamin C (ascorbic acid-treated group) and 100 μM vitamin E (a-tocopherol-treated group) as the positive control group and then cultured for 24 hours. Next day, it was treated with 1 mM hydrogen peroxide (H2O2) and then cultured for about 1˜1.5 hours. Then, a cell viability was examined with the MTT assay.

[5] = system: normal human keratinocytes; test: Differentiation promoting effect in skin keratinocytes (western blot of involucrin and transglutaminase); assay type: cell-based; conditions: phosphatidylserine 20 and 40 μM, calcium 1.2 mM, clofibrate 200 and 400 μM; 24 hours; FIG. 5
Description: In order to examine a differentiation promoting effect in the skin keratinocytes by the phosphatidylserine of the invention, a following experiment was performed. First, the normal human keratinocytes (a gift from Dong-guk University) cultured in the KSFM (Keratinocyte-SFM; Gibco BRL/Life Technologies, USA) were seeded to the 35 mm^2 cell culture dish in an amount of 1.5×10^5 cells/dish and then cultured for a day. Next day, the culture medium was removed and a new culture medium containing 20 and 40 μM of phosphatidylserine aqueous solution, 1.2 mM calcium aqueous solution and 200 and 400 μM of clofibrate (Sigma, USA) added thereto was added and cultured for 24 hours. Next day, in order to make sure of a differentiation of the keratinocyte, a morphology change of the cell was checked with a phase contrast microscope (Nikon, Japan) and a photograph was taken with a digital camera attached to the microscope. In addition, a western blot was performed to check the protein expression amount of involucrin and transglutaminase, which have been known as a differentiation-marker proteins of the keratinocyte peculiar to the keratin. 500 μl of a lysis buffer having 2% sodium dodecyl sulfate (SDS) added thereto wad added and the cells were collected with a cell scrapper, so that cell lysate only was obtained. […]

Cc1cccc(Nc2cc(Cl)nc(SCC(=O)O)n2)c1C [WY14643, reference compound]
inflammatory response increased due to the ultraviolet irradiation (TNF-a, IL-6, IL-1alpha amounts) [1]: considerably alleviated | protection of skin keratinocytes from ultraviolet injury (cell survival, MTT) [2]: protected the skin keratinocytes from the ultraviolet injury | inflammation alleviation (H&E stained ear tissue) [3]: inflammation was alleviated | inflammation due to the skin stimulating material (skin): decreased

Cc1c(C)c2c(c(C)c1O)CC[C@@](C)(CCC[C@H](C)CCC[C@H](C)CCCC(C)C)O2 [a-tocopherol, reference compound]
protection effect from reactive oxygen species (cell viability, MTT) [4]: exhibited the protection effect

O=C1O[C@H]([C@@H](O)CO)C(O)=C1O [ascorbic acid, reference compound]
protection effect from reactive oxygen species (cell viability, MTT) [4]: exhibited the protection effect

[Ca+2] [calcium, reference compound]
protein expression of involucrin and transglutaminase [5]: caused the expressions of the two proteins to be increased
